Data on ten compounds can be found in US20240368203A1, “DEGRADATION OF (EGFR) BY CONJUGATION OF EGFR INHIBITORS WITH E3 LIGASE LIGAND AND METHODS OF USE” (BeiGene, Ltd., priority 2022, published 2024).

As a reminder, the DC50 is the concentration giving 50% degradation. As usually defined, the Dmax is the largest share of the target that was removed.

Assay [1] has as its system EGFR-Del19/T790M/C797S. Description: EGFR degradation HTRF assay in H1975-clone #28 cells. In kind it is cell-based. Conditions: H1975-clone #28 (Del19/T790M/C797S) cells, 16 h treatment; for DC50: IC50 (DC50), read-out: DC50(nM) H1975 # 28 DTC; for Dmax (%) H1975 # 28 DTC: maximum percentage of inhibition (degradation). On the procedure: (§1) H1975-clone #28(Del19/T790M/C797S) and H1975-clone #25(L858R/T790M/C797S). EGFR-Del19/T790M/C797S and EGFR-L858R/T790M/C797S were stably expressed in H1975 cell lines by lentivirus-mediated over-expression, respectively. The EGFR over-expressed cells then underwent knockout, in which the EGFR targeting sgRNA was designed to only target the endogenous EGFR copies and preserve the exogenous EGFR copies. Followed by knockout, the edited H1975 cells were seeded in 96 well plates at the concentration of […], cultured for about 2 weeks to allow single clones formation. The formed clones were screened by DNA sequencing and whole exon sequencing analysis for the desired edition.
(§2) H1975-clone #28, and H1975-clone #25 were finally confirmed as homozygous Del19/T790M/C797S EGFR, and L858R/T790M/C797S EGFR clones, respectively.
(§3) H1975-#25 and H1975-#28 cells are treated with compounds diluted in 0.2% DMSO cell culture medium on day 2, incubate for 16 h, 37° C., 5% CO2. the final concentration of compounds in all assay is start with 10 uM, 5-fold dilution, total 8 doses were included.
(§4) After 16 h treatment, add HTRF lysis buffer to each well; seal the plate and incubate 1 hour at room temperature on a plate shaker; Once the cells are lysed, 16 μL of cell lysate are transferred to a PE 384-well HTRF detection plate; 4 μL of pre-mixed HTRF antibodies are added to each well; Cover the plate with a plate sealer, spin 1000 rpm for 1 min, Incubate overnight at room temperature; Read on BMG PheraStar with HTRF protocol (337 nm-665 nm-620 nm).
(§5) The inhibition (degradation) percentage of the compound was calculated by the following equation:
(§6) Inhibition percentage of Compound=100−100×(Signal−low control)/(High control−low control),
(§7) The IC50 (DC50) value of a compound can be obtained by fitting the following equation
(§8) Wherein, X and Y are known values, and IC50, Hillslope, Top and Bottom are the parameters obtained by fitting with software. Y is the inhibition percentage (calculated from the equation), X is the concentration of the compound; IC50 is the concentration of the compound when the 50% inhibition is reached. The smaller the IC50 value is, the stronger the inhibitory ability of the compound is. Vice versa, the higher the IC50 value is, the weaker the ability the inhibitory ability of the compound is; Hillslope represents the slope of the fitted curve, generally around 1 *; Bottom represents the minimum value of the curve obtained by data fitting, which is generally 0%±20%; Top represents the maximum value of the curve obtained by data fitting, which is generally 100%±20%. The experimental data were fitted by calculating and analyzing with Dotmatics data analysis software.
Background: In TR-FRET formats the signal depends on donor and acceptor labels being close together.

Assay [2] addresses T1, EGFR-L858R/T790M/C797S (Homo sapiens, UniProt P00533, C797S/L858R/T790M).
T1 construct: expressed in transfected cells; host or cells: H1975-clone #25 (lentiviral over-expression, endogenous EGFR knocked out)
Description: EGFR degradation HTRF assay in H1975-clone #25 cells. It is filed as cell-based. The conditions noted are these: 16 h treatment; for DC50: H1975-clone #25 (L858R/T790M/C797S) cells, IC50 (DC50), read-out: DC50(nM) H1975 # 25-LTC; for Dmax: NCI-H1975, H1975-clone #25 (L858R/T790M/C797S) cells, maximum percentage of inhibition (degradation), read-out: Dmax (%) H1975 # 25-LTC. On the procedure:
as §1, §2, §3, §4, §5, §6, §7, §8

T1 sequence (P00533 25-1210 T790M/C797S/L858R): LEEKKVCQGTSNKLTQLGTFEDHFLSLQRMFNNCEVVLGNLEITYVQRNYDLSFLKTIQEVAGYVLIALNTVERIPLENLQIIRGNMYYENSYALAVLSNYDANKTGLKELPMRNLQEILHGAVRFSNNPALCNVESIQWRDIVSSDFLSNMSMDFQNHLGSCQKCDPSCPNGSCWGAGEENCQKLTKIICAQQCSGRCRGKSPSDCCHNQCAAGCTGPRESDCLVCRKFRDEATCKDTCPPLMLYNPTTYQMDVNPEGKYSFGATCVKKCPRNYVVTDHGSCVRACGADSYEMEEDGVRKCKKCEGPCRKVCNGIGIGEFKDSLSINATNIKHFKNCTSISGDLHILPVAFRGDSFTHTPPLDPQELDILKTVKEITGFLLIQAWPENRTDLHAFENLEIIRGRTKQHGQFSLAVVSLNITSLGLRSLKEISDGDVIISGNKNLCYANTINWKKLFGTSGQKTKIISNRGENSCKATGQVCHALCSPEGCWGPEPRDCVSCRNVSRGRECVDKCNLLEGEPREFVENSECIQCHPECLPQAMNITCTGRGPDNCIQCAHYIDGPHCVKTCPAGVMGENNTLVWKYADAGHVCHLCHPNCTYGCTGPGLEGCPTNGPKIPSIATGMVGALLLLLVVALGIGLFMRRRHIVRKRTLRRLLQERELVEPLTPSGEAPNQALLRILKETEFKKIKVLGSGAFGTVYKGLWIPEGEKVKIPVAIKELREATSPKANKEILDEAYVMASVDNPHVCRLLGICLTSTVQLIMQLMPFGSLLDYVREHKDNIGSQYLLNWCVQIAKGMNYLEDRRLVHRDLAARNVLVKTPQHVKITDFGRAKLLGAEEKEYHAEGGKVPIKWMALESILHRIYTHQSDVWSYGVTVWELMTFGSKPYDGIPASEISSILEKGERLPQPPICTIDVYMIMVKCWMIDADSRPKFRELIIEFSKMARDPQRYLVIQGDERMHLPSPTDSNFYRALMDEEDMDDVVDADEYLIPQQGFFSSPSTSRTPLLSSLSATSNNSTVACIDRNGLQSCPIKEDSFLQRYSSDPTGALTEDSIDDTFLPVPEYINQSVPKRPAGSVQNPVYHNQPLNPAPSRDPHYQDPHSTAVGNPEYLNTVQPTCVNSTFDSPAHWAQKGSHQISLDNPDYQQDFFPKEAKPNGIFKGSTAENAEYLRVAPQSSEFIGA

For `CCc1ncc2c(P(C)(C)=O)c(Nc3nc(Nc4cc(CC)c(N5CCC6(CC5)CCN(C5CCN(c7cc(F)c([C@H]8CCC(=O)NC8=O)c(F)c7)CC5)CC6)cc4OC)ncc3Br)ccc2n1` [Example 3, (R)-3-(4-(4-(9-(4-((5-bromo-4-((5-(dimethylphosphoryl)-2-ethylquinazolin-6-yl)amino)pyrimidin-2-yl)amino)-2-ethyl-5-methoxyphenyl)-3,9-diazaspiro[5.5]undecan-3-yl)piperidin-1-yl)-2,6-difluorophenyl)piperidine-2,6-dione], in assay [1], the DC50 was 1.9 nM and the “Dmax (%) H1975 # 28 DTC” value was found to be 91%. Moreover, in assay [2], the DC50 was found to be 2.8 nM and the Dmax was found to be 95%.
On the same counts, the results for `CCc1cc(Nc2ncc(Br)c(Nc3ccc4nc(C)c(F)cc4c3P(C)(C)=O)n2)c(OC)cc1N1CCC2(CCN(CCc3cc(F)c([C@H]4CCC(=O)NC4=O)c(F)c3)CC2)CC1` [Example 6, (R)-3-(4-(2-(9-(4-((5-bromo-4-((5-(dimethylphosphoryl)-3-fluoro-2-methylquinolin-6-yl)amino)pyrimidin-2-yl)amino)-2-ethyl-5-methoxyphenyl)-3,9-diazaspiro[5.5]undecan-3-yl)ethyl)-2,6-difluorophenyl)piperidine-2,6-dione] are 3.1 nM, 80%, 9 nM and 89%.
In the same order, the values of `CCc1cc(Nc2ncc(Br)c(Nc3ccc4nc(C)c(F)cc4c3P(C)(C)=O)n2)c(OC)cc1N1CCC(N2CCN(C3CN(c4cc(F)c([C@H]5CCC(=O)NC5=O)c(F)c4)C3)CC2)CC1` [Example 8, (R)-3-(4-(3-(4-(1-(4-((5-bromo-4-((5-(dimethylphosphoryl)-3-fluoro-2-methylquinolin-6-yl)amino)pyrimidin-2-yl)amino)-2-ethyl-5-methoxyphenyl)piperidin-4-yl)piperazin-1-yl)azetidin-1-yl)-2,6-difluorophenyl)piperidine-2,6-dione] are 0.6 nM, 80%, 1.6 nM and 87%.
Take `CCc1cc(Nc2ncc(Cl)c(Nc3ccc4nc(C)c(F)cc4c3P(C)(C)=O)n2)c(OC)cc1N1CCC(N2CCC(N3CCN(c4cc(F)c([C@H]5CCC(=O)NC5=O)c(F)c4)CC3)CC2)CC1` [Example 12, (R)-3-(4-(4-(1′-(4-((5-chloro-4-((5-(dimethylphosphoryl)-3-fluoro-2-methylquinolin-6-yl)amino)pyrimidin-2-yl)amino)-2-ethyl-5-methoxyphenyl)-[1,4′-bipiperidin]-4-yl)piperazin-1-yl)-2,6-difluorophenyl)piperidine-2,6-dione]: in assay [1], the DC50 was determined as 2.9 nM and the “Dmax (%) H1975 # 28 DTC” value amounted to 91%. Besides, in assay [2], the DC50 is 2.5 nM and the Dmax amounted to 92%.
For `CCc1ncc2c(P(C)(C)=O)c(Nc3nc(Nc4cc(CC)c(N5CCC(N6CC(N7CCC(c8cc(F)c([C@H]9CCC(=O)NC9=O)c(F)c8)CC7)C6)CC5)cc4OC)ncc3Br)ccc2n1` [Example 13, (R)-3-(4-(1-(1-(1-(4-((5-bromo-4-((5-(dimethylphosphoryl)-2-ethylquinazolin-6-yl)amino)pyrimidin-2-yl)amino)-2-ethyl-5-methoxyphenyl)piperidin-4-yl)azetidin-3-yl)piperidin-4-yl)-2,6-difluorophenyl)piperidine-2,6-dione], in assay [1], the DC50 worked out at 0.7 nM and the “Dmax (%) H1975 # 28 DTC” value turned out to be 92%. Moreover, in assay [2], the DC50 was found to be 1.8 nM and the Dmax came out at 94%.
On the same counts, the results for `CCc1ccc2c(P(C)(C)=O)c(Nc3nc(Nc4cc(CC)c(N5CCC(N6CC(N7CCC(c8cc(F)c([C@H]9CCC(=O)NC9=O)c(F)c8)CC7)C6)CC5)cc4OC)ncc3Br)ccc2n1` [Example 14, (R)-3-(4-(1-(1-(1-(4-((5-bromo-4-((5-(dimethylphosphoryl)-2-ethylquinolin-6-yl)amino)pyrimidin-2-yl)amino)-2-ethyl-5-methoxyphenyl)piperidin-4-yl)azetidin-3-yl)piperidin-4-yl)-2,6-difluorophenyl)piperidine-2,6-dione] are 1.9 nM, 89%, 2.1 nM and 91%.
In the same order, the values of `CCOc1cc(N2CCC(N3CC(N4CCC(c5cc(F)c([C@H]6CCC(=O)NC6=O)c(F)c5)CC4)C3)CC2)c(CC)cc1Nc1ncc(Cl)c(Nc2ccc3nc(C)c(F)cc3c2P(C)(C)=O)n1` [Example 15, (R)-3-(4-(1-(1-(1-(4-((5-chloro-4-((5-(dimethylphosphoryl)-3-fluoro-2-methylquinolin-6-yl)amino)pyrimidin-2-yl)amino)-5-ethoxy-2-ethylphenyl)piperidin-4-yl)azetidin-3-yl)piperidin-4-yl)-2,6-difluorophenyl)piperidine-2,6-dione] are 2.7 nM, 95%, 3.3 nM and 94%.
In the case of `CCc1cc(Nc2ncc(Br)c(Nc3ccc4nc(C)c(F)cc4c3P(C)(C)=O)n2)c(OC)cc1N1CCC(N2CCC3(CCN(c4cc(F)c([C@H]5CCC(=O)NC5=O)c(F)c4)C3)C2)CC1` (stereo partly drawn) [Example 17, (3R)-3-(4-(7-(1-(4-((5-bromo-4-((5-(dimethylphosphoryl)-3-fluoro-2-methylquinolin-6-yl)amino)pyrimidin-2-yl)amino)-2-ethyl-5-methoxyphenyl)piperidin-4-yl)-2,7-diazaspiro[4.4]nonan-2-yl)-2,6-difluorophenyl)piperidine-2,6-dione], in assay [1], the DC50 was found to be 1.7 nM and the “Dmax (%) H1975 # 28 DTC” value was 92%. In assay [2], the DC50 came to 2.9 nM and the Dmax was 87%.
On the same counts, the results for `CCc1ccc2c(P(C)(C)=O)c(Nc3nc(Nc4cc(CC)c(N5CCC(N6CCN(C7CN(c8cccc9c8n(C)c(=O)n9C8CCC(=O)NC8=O)C7)CC6)CC5)cc4OC)ncc3Br)ccc2n1` (stereo not shown) [Example 21, 3-(4-(3-(4-(1-(4-((5-bromo-4-((5-(dimethylphosphoryl)-2-ethylquinolin-6-yl)amino)pyrimidin-2-yl)amino)-2-ethyl-5-methoxyphenyl)piperidin-4-yl)piperazin-1-yl)azetidin-1-yl)-3-methyl-2-oxo-2,3-dihydro-1H-benzol[d]imidazol-1-yl)piperidine-2,6-dione] are 0.6 nM, 77%, 1.8 nM and 78%.
On to `CCc1cc(Nc2ncc(Br)c(Nc3ccc4nc(C)c(F)cc4c3P(C)(C)=O)n2)c(OC)cc1N1CCC(N2CCN(C3CN(c4cccc5c4n(C)c(=O)n5C4CCC(=O)NC4=O)C3)CC2)CC1` (stereo not shown) [Example 22, 3-(4-(3-(4-(1-(4-((5-bromo-4-((5-(dimethylphosphoryl)-3-fluoro-2-methylquinolin-6-yl)amino)pyrimidin-2-yl)amino)-2-ethyl-5-methoxyphenyl)piperidin-4-yl)piperazin-1-yl)azetidin-1-yl)-3-methyl-2-oxo-2,3-dihydro-1H-benzo[d]imidazol-1-yl)piperidine-2,6-dione], for which, in assay [1], the DC50 came out at 0.6 nM and the “Dmax (%) H1975 # 28 DTC” value came to 74%. In addition, in assay [2], the 50% degradation concentration (DC50) worked out at 0.9 nM and the Dmax is 83%.
